The target of series [1] is T1, TsA (L-asparaginase from Thermococcus sibiricus) (Thermococcus sibiricus, UniProt C6A532).
T1 construct: gene TSIB_1676
The series is described as follows: direct Nesslerization (ammonia release). Format: biochemical. Conditions: 90 °C, Tris-HCl 0.05 M pH 9.0 (b36 says same conditions as mutant).

Substrate in series [2]: NC(=O)C[C@H](N)C(=O)O
The series is described as follows: direct Nesslerization (ammonia release). The class given is biochemical, Thermococcus sibiricus. Conditions: 90 °C, glycine-NaOH 0.01 M pH 9.3, printed substrate range 20-250 μM.

T1 sequence (C6A532 entry or part of it): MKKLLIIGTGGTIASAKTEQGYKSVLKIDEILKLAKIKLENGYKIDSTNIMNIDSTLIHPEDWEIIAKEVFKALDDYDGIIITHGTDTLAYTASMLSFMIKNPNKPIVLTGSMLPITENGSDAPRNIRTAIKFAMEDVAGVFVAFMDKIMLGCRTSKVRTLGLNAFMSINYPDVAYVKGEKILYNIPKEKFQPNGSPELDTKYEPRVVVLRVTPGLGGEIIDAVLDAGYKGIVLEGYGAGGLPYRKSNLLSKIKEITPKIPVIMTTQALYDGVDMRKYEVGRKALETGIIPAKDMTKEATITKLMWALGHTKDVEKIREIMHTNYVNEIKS

For orientation: Km means the concentration of substrate that gives half-maximal velocity. In the case of `NC(=O)C[C@H](N)C(=O)O` [L-asparagine], the Michaelis-Menten constant (Km) in series [1] was 3000 µM.

B1: TsA (L-asparaginase from Thermococcus sibiricus) (Thermococcus sibiricus MM 739; D54G/T56Q) (protein)
chain: MKKLLIIGTGGTIASAKTEQGYKSVLKIDEILKLAKIKLENGYKIDSTNIMNIGSQLIHPEDWEIIAKEVFKALDDYDGIIITHGTDTLAYTASMLSFMIKNPNKPIVLTGSMLPITENGSDAPRNIRTAIKFAMEDVAGVFVAFMDKIMLGCRTSKVRTLGLNAFMSINYPDVAYVKGEKILYNIPKEKFQPNGSPELDTKYEPRVVVLRVTPGLGGEIIDAVLDAGYKGIVLEGYGAGGLPYRKSNLLSKIKEITPKIPVIMTTQALYDGVDMRKYEVGRKALETGIIPAKDMTKEATITKLMWALGHTKDVEKIREIMHTNYVNEIKS
Regarding B1, the Km in series [2] was 6000 µM.
